Reference: paper PMC9664868, “Dephospho-Coenzyme A Kinase Is an Exploitable Drug Target against Plasmodium falciparum: Identification of Selective Inhibitors by High-Throughput Screening of a Large Chemical Compound Library” (Antimicrobial Agents and Chemotherapy, 2022)
Where two headings read alike, the source gives them in different places.

Columns and labels:
[1] = system: P. falciparum drug-sensitive 3D7 strain; assay: Erythrocytic-stage parasite growth inhibition, diaphorase-coupled LDH assay, 3D7; format: cell-based, Plasmodium falciparum; details: Plasmodium falciparum
Method: (§1) Selected hit compounds were also tested against erythrocytic-stage parasites of P. falciparum drug-sensitive 3D7 and drug-resistant Dd2 strains ([39]). For the phenotypic assay, parasite cultures were synchronized with 5% (wt/vol) D-sorbitol as previously described ([40]). A synchronized culture containing ring-stage parasites of 0.3% parasitemia was initiated with a culture volume of 25 μL/well on a 384-well plate. A series of diluted compounds (at final concentrations of 50, 10, 2, 0.4, and 0.08 μM) were used to calculate IC50 values. Mefloquine at 50 μM and atovaquone at 20 μM were used as no-growth control (100% inhibition). After 72 h of incubation, parasite growth was measured by diaphorase-coupled lactate dehydrogenase (LDH) assay as previously described ([41]). Absorbance at 650 nm was measured using SpectraMax Paradigm multimode microplate reader (Molecular Devices, San Jose, CA, USA). The IC50 values were calculated as described above.

[2] = system: P. falciparum drug-resistant Dd2 strain; assay: Erythrocytic-stage parasite growth inhibition, diaphorase-coupled LDH assay, Dd2; format: cell-based, Plasmodium falciparum; details: Plasmodium falciparum
Method: as §1

PfDPCK [3] = molecular target: T1, PfDPCK (Plasmodium falciparum, UniProt Q8IL34); assay: PfDPCK inhibition, enzyme-coupled fluorescence ADP detection assay (HTS and IC50 determination); format: biochemical
Method: High-throughput screening against recombinant PfDPCK was performed using the Drug Discovery Initiative (DDI) full library, available from The University of Tokyo, composed of approximately 210,000 compounds. The primary assay was performed on 1,536-well white plate format with a final volume of 2 μL/well, containing 10 μM test compounds using a Multidrop Combi reagent dispenser (Thermo Fisher Scientific, Waltham, MA). The reaction was conducted in the assay buffer described above with 100 μM ATP and 50 μM dephospho-CoA. The assay was carried out at room temperature for 4 h in a closed plastic container with wet tissues. The reaction was stopped, and produced ADP was quantified using an enzyme-coupled fluorescence ADP detection assay, using PHERAstar microplate reader (BMG Labtech, Offenburg, Germany) with excitation at 540 nm and emission at 590 nm, as previously described ([17]). The inhibition level was calculated as the percentage inhibition of DPCK activity with each compound compared to the activity with only dimethyl sulfoxide (DMSO) as control (no inhibition) and that with no enzyme as 100% inhibition. IC50 values of the hit compounds were determined under the same assay conditions for the screening: Z′ factor, signal-to-background ratio (S/B), signal-to-noise ratio (S/N), and coefficient of variation (CV) were calculated to estimate the quality of screening system as previously described ([18], [38]).
The primary hits were reassayed in quadruplicate (n = 4) as in the primary screening. We next tested the confirmed secondary hits to exclude false positives that inhibit coupled fluorescence assay, but not PfDPCK. After exclusion of false positives, all tertiary hits were tested against human HsCOASY in the counterassay to exclude compounds that inhibit both PfDPCK and HsCOASY. The compounds showing >10% inhibition against HsCOASY were excluded from further studies. The IC50 values of the hit compounds were determined under the same assay conditions described as above for the primary screening, with the serially diluted compounds at 20, 10, 2.5, 0.5, and 0.1 μM at final concentrations. The assay was conducted in quadruplicate for each dilution, and IC50 values were calculated using GraphPad Software (San Diego, California USA).

PfDPCK [4] = molecular target: T1, PfDPCK; assay: Mechanism of PfDPCK inhibition by Lineweaver-Burk plot; format: biochemical
Method: In order to understand the mechanism of PfDPCK inhibition of the identified compounds, we independently selected compounds from 359 PfDPCK-specific inhibitor candidates (showing >40% inhibition at 10 μM against PfDPCK), based on the more stringent criteria of >80% inhibition at 10 μM against PfDPCK and <10% inhibition against HsCOASY, to yield 30 hits. The hits were prioritized using a multiparameter optimization (MPO) scoring model, developed by MMV (https://www.optibrium.com/downloads/scoring-profiles/mmv-antimalarial-scoring-profile/) based on calculated physicochemical properties, including molecular weight, logP, hydrogen bond donors and acceptors, rotatable bonds, and structural alerts ([20], [21]). We finally chose six representative compounds (A-15, A-33, and A-69, shown in Table S1, and other three compounds; A-126, A-127, and A-128) by manual inspection with “chemist eye” for chemical attractiveness (druglikeness). […] Furthermore, two compounds, A-33 and A-69, are considered to be pan-assay interference compounds (PAINS) (phenolic Mannich base) ([22]). We consequently focused on two commercially available compounds (A-15 and A-127) (Fig. 6A) and investigated their mechanism of inhibition. We differentiated the type of inhibition by Lineweaver-Burk plot with various concentrations of one substrate (dephospho-CoA or ATP), while the other substrate was given in saturating concentrations in kinetic studies (Fig. 5).
FIG 5 Lineweaver-Burk plots showing inhibition of two compounds, compound A-15 (A, B) and compound A-127 (C, D) on the PfDPCK activity. The enzymatic activities were determined with various concentrations of dephospho-CoA and 200 μM ATP (A, C) or various concentrations of ATP and 200 μM dephospho-CoA (B, D) in the presence of a range of concentrations of inhibitors. Data are shown in means ± SEMs of triplicate.
(§2) PfDPCK and HsCOASY activity was measured by quantifying ADP produced in the reaction by a coupling assay using the ADP Hunter Plus assay kit (DiscoverX, USA) according to the manufacturer's instructions. Briefly, enzymatic reactions were carried out in a 20-μL mixture of assay buffer containing 15 mM HEPES, 20 mM NaCl, 1 mM EGTA, 0.02% Tween 20, 10 mM MgCl2, 0.1% bovine gamma globulin, 50 ng of recombinant PfDPCK or HsCOASY, 4 to 256 μM dephospho-CoA, and 5 to 300 μM ATP on a black microplate. All reactions were performed for 2 h, reagents A and B were added, and they were then reincubated for 60 min at 30°C. After reactions were terminated by addition of ADP Hunter Stop solution, the fluorescent signal was measured using SpectraMax Paradigm (Molecular Devices, CA, USA) at excitation and emission wavelengths of 530 and 590 nm, respectively. The kinetic parameters were calculated using the nonlinear regression function using the single saturating concentrations of the substrates by the GraphPad Prism software (GraphPad Software Inc., San Diego, CA). The experiments were repeated three times in triplicate using proteins purified from independent cultures. Kinetic values of enzymes are presented as the means ± standard errors (SEs).

PfDPCK [5] = molecular target: T1, PfDPCK; assay: Kinetic analysis of recombinant PfDPCK (ADP Hunter Plus); format: biochemical
Method: as §2

HsCOASY = molecular target: T2, HsCOASY (Homo sapiens, UniProt Q13057); assay: Kinetic analysis of recombinant HsCOASY (ADP Hunter Plus); format: biochemical; details: substrate of HsCOASY
T2 construct: His tag (pCold1 vector); made in house; host or cells: Escherichia coli BL21Star (DE3)
T2 sequence (Q13057 1-564): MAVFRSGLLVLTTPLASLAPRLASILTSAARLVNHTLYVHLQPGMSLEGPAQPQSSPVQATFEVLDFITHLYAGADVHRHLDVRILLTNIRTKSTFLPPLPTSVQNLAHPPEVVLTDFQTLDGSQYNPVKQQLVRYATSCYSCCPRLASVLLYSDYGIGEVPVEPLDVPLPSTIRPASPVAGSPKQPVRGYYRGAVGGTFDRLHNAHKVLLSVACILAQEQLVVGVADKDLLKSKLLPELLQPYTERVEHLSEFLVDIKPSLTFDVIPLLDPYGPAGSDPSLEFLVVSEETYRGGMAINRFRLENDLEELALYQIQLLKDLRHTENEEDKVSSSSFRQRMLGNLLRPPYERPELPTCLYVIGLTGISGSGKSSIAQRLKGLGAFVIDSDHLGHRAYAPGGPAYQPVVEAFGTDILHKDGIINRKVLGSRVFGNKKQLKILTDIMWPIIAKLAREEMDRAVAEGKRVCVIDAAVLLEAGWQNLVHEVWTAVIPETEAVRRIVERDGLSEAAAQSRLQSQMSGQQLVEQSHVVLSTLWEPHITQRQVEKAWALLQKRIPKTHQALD
Method: as §2

HepG2 cell line = assay: Cytotoxicity assay (Cell Counting Kit-8); format: cell-based, human; details: Homo sapiens, HepG2; ND (maximum concentration tested 100 μM); read-out: IC50 (μM) of: HepG2
Method: Cytotoxicity against human cells was evaluated using the human liver carcinoma HepG2 cell line. HepG2 cells were cultured in D-MED supplemented with 4 mM L-glutamine and 10% fetal bovine serum (FBS) in a 75-cm^2 flask (Violamo) at 37°C. For the cytotoxicity assay, HepG2 cells in semiconfluent state were detached from the flask by incubating the cells with 5 mL D-MEM containing 0.25% trypsin-EDTA. After detachment, HepG2 cells were resuspended in D-MEM-supplemented L-glutamine and FBS, and cell viability was evaluated by incubating cells with 0.4% Trypan blue on a hemocytometer. An approximately 50-μL suspension containing 3,000 cells was dispensed into each well on a 384-well clear-bottom plate using a Multidrop Combi dispenser. Compounds dissolved in DMSO had been dispensed into wells to yield final concentrations of 100, 20, 4, 0.8, and 0.2 μM before cells were added. After cells were added to the plates, they were cultured at 37°C under 5% CO2. After 48 h cultivation, 5 μL of Cell Counting Kit-8 (Dojindo, Japan) was added, and the plates were further incubated for 2 h to assess cell growth and survival.

[6] = substrate: CC(C)(COP(=O)(O)OP(=O)(O)OCC1OC(n2cnc3c(N)ncnc32)C(O)C1O)C(O)C(=O)NCCC(=O)NCCS; assay: Kinetic analysis of recombinant PfDPCK (ADP Hunter Plus); format: biochemical, Plasmodium falciparum; details: other: substrate of PfDPCK; 30.0 °C
Method: as §2

[7] = substrate: CC(C)(COP(=O)(O)OP(=O)(O)OCC1OC(n2cnc3c(N)ncnc32)C(O)C1O)C(O)C(=O)NCCC(=O)NCCS; assay: Kinetic analysis of recombinant HsCOASY (ADP Hunter Plus); format: biochemical, human; details: other: substrate of HsCOASY; 30.0 °C
Method: as §2

[8] = drug-sensitive 3D7, 72 h, means ± SEMs, read-out: IC50 (μM) of: Pf cell 3D7
[9] = drug-resistant Dd2, 72 h, means ± SEMs, read-out: IC50 (μM) of: Pf cell Dd2
[10] = recombinant enzyme, means ± SEMs, read-out: IC50 (μM) of: PfDPCK

COc1cc(N2CCCC2)cc2ccc(-c3ccccn3)nc12 [Compound A-127]
IC50 ([1]; 3D7, Table S1, means ± SEM, read-out: IC50 (μM) Pf cell 3D7): < 2 µM | inhibition at 2 µM ([1]; 3D7, at 2 μM, read-out: growth inhibition against 3D7): 80% | IC50 ([2]; DD2, Table S1, means ± SEM, read-out: IC50 (μM) Pf cell Dd2): < 10 µM | IC50 (PfDPCK [3]; Table S1, means ± SEM, read-out: IC50 (μM) Pf DPCK): 5.01 ± 0.46 µM | Ki (PfDPCK [4]; in respect of ATP, 200 μM dephospho-CoA): 8.99 µM | type of inhibition (PfDPCK [4]; in respect of dephospho-CoA and ATP, Lineweaver-Burk plot): uncompetitive or noncompetitive inhibition | Ki (PfDPCK [4]; in respect of dephospho-CoA, 200 μM ATP): 14.9 µM

Nc1ncnc2c1ncn2[C@@H]1O[C@H](COP(=O)(O)OP(=O)(O)OP(=O)(O)O)[C@@H](O)[C@H]1O [ATP]
Km (PfDPCK [5]; substrate of PfDPCK): 88.1 ± 11 µM | Km (HsCOASY): 115 ± 13.1 µM

CC(C)(CO)[C@@H](O)C(=O)NCCC(=O)O [pantothenate]
specific activity (PfDPCK [5]; as a substrate of PfDPCK): < 0.01 µmol/min/mg

O=C1NC(=O)/C(=C/c2ccc(C(=O)Nc3ccc(O)cc3C(=O)O)cc2)S1 [Compound A-60]
IC50 [1, 8]: 34.14 ± 0.04 µM | IC50 [2, 9]: 5.53 ± 0.95 µM | IC50 (HepG2 cell line): > 100 µM | IC50 (PfDPCK [3]; [10]): 8.35 ± 0.05 µM

Cc1cc(-c2csc(N3CCCC3)n2)c(C)n1-c1c(C)n(C)n(-c2ccccc2)c1=O [Compound A-44]
IC50 [1, 8]: 3.96 ± 0.04 µM | IC50 [2, 9]: 1.75 ± 0.05 µM | IC50 (HepG2 cell line): > 100 µM | IC50 (PfDPCK [3]; [10]): 6.33 ± 0.11 µM

B1: PfDPCK (Plasmodium falciparum 3D7) (protein)
chain: MFLKFFLDKCILCFLALGSIPIGYINRKNKFRKIENQKYALFSSIVMNSFLIYLNKFFGILGIFNFFLGNYLCLIGITGGIAVGKSTFCNFLKKKDVVVINADEITSKIYTKDSICYKKIVKHFGENILNNDKSINRTLLRKIVFNNEENVKYINKITHTYIILQIIKECLKYKFLYFKYNVAIEAPLLIETKLYLLTSPVILLKSSVRNQIKRILSRDKNCTYDTAMGIIKNQLPTDEKIKYADIIINNDGDILDLQMKCDVVYNKYLKNFFF
Km [6]: 105.3 ± 10.2 µM

B2: HsCOASY (Homo sapiens) (protein)
chain: MAVFRSGLLVLTTPLASLAPRLASILTSAARLVNHTLYVHLQPGMSLEGPAQPQSSPVQATFEVLDFITHLYAGADVHRHLDVRILLTNIRTKSTFLPPLPTSVQNLAHPPEVVLTDFQTLDGSQYNPVKQQLVRYATSCYSCCPRLASVLLYSDYGIGEVPVEPLDVPLPSTIRPASPVAGSPKQPVRGYYRGAVGGTFDRLHNAHKVLLSVACILAQEQLVVGVADKDLLKSKLLPELLQPYTERVEHLSEFLVDIKPSLTFDVIPLLDPYGPAGSDPSLEFLVVSEETYRGGMAINRFRLENDLEELALYQIQLLKDLRHTENEEDKVSSSSFRQRMLGNLLRPPYERPELPTCLYVIGLTGISGSGKSSIAQRLKGLGAFVIDSDHLGHRAYAPGGPAYQPVVEAFGTDILHKDGIINRKVLGSRVFGNKKQLKILTDIMWPIIAKLAREEMDRAVAEGKRVCVIDAAVLLEAGWQNLVHEVWTAVIPETEAVRRIVERDGLSEAAAQSRLQSQMSGQQLVEQSHVVLSTLWEPHITQRQVEKAWALLQKRIPKTHQALD
notes: His tag (pCold1 vector); made in house; host or cells: Escherichia coli BL21Star (DE3)
Km [7]: 85.35 ± 13.4 µM
